Where two headings read alike, the source gives them in different places.

As a reminder, the IC50 is the concentration that gives 50% inhibition. Read a high IC50 as lower potency.

Data set [1] in a line: Cytotoxicity by methylene blue assay. The format is cell-based. Particulars: human, Huh-luc/neo-ET cells. The protocol:
The cytotoxicity of different herbal extract or components was measured by methylene blue assay. Huh-luc/neo-ET cells were seeded at a density of 7 × 10^3 cells per well in 96-well plate and treated with serial dilution of different herb extracts for 72 h. Cells were fixed and stained with 0.5% methylene blue in 50% ethanol, and then washed with tap water. After air-dry, cells were solubilized with 1% Sarkosyl and cell viability was determined from the extent absorption by spectrophotometric measurements at 595 nm (Spectra Max M5, Molecular Devices).

Data set [2] has as its system HCV genotype 1b (Con1) replicon. The data set can be described thus: Anti-HCV luciferase reporter assay on Huh-luc/neo-ET replicon cells. Particulars: Hepatitis C virus, GETYPE1B, 72 h.
In another data set the test system is HCV entry. On the set-up: method as in PMID 22491814. Particulars: cited from earlier work.
Data set [3] concerns HCV JFH1-GFP chimeric virus. Set-up: method as in PMID 22491814. The note with it: read-out: EC50, replication of HCV JFH1-GFP chimeric virus; cited from earlier work.
For another data set, the system named is J399EM virus. On the set-up: method as in PMID 22491814. The note with it: cited from earlier work.
Data set [4] deals with different subtypes of human and avian influenza viruses. Particulars: cited from earlier work.
[5] abbreviates: read-out: Anti-HCV Activity (EC50, 72 h).
[6] abbreviates: read-out: Anti-HCV Activity (EC50).
Where [7] appears, read: read-out: Anti-HCV Activity (EC50), in brackets as mass concentration.

For the molecule `O=C(O)c1cc(O)c(O)c(O)c1` [Gallic acid, gallic acid], the concentration for half-maximal inhibition (IC50) at 72 h in data set [1] is greater than 100 µM. The EC50 in data set [2] (setting [5]) was greater than 100 µM.
For the molecule `O=C(O[C@@H]1Cc2c(O)cc(O)cc2O[C@@H]1c1cc(O)c(O)c(O)c1)c1cc(O)c(O)c(O)c1` [EGCG, epigallocatechin gallate], the EC50 in the data set with HCV entry was 25 µM; in data set [3], 17.9 µM; in data set [2] (setting [5]) it was 68.7 ± 4.51 µM; in the data set on J399EM virus, 80 µM. Also, the IC50 at 72 h in data set [1] is greater than 100 µM.
Molecule `Oc1cc(O)c2c(c1)O[C@H](c1ccc(O)c(O)c1)[C@H](O)C2` [EC, epicatechin] came in with a half-maximal inhibitory concentration (IC50) at 72 h in data set [1] greater than 100 µM. Moreover, in data set [2] (setting [5]), the EC50 is greater than 100 µM.
`Oc1cc(O)c2c(c1)O[C@H](c1cc(O)c(O)c(O)c1)[C@H](O)C2` [EGC, epigallocatechin]: the IC50 at 72 h in data set [1] was greater than 100 µM. Also, the EC50 in data set [2] (setting [5]) was greater than 100 µM.
In data set [1], `O=C(O[C@@H]1Cc2c(O)cc(O)cc2O[C@@H]1c1ccc(O)c(O)c1)c1cc(O)c(O)c(O)c1` [ECG, epicatechin gallate] gave an IC50 at 72 h greater than 100 µM. In addition, in data set [2] (setting [5]), the EC50 was determined as 69.8 ± 5.62 µM.
For `Oc1cc(O)c2c(c1)O[C@H](c1ccc(O)c(O)c1)[C@@H](O)C2` [(+)-Catechin], in that order: greater than 100 µM and greater than 100 µM.
For `COc1ccc2c(O[C@@H]3C[C@H]4C(=O)N[C@]5(C(=O)NS(=O)(=O)C6CC6)C[C@H]5/C=C\CCCCN(C)C(=O)[C@@H]4C3)cc(-c3nc(C(C)C)cs3)nc2c1C` [Simeprevir, simeprevir], the EC50 was 0.00127 ± 0.00025 µM in data set [2] (setting [6]) and 42.5 ng/mL in data set [2] (setting [7]).
For `COc1cc(C[C@H]2CO[C@H](c3ccc(O[C@@H]4O[C@H](CO)[C@@H](O)[C@H](O)[C@H]4O)c(OC)c3)[C@H]2CO)ccc1O[C@@H]1O[C@H](CO)[C@@H](O)[C@H](O)[C@H]1O` [Clemastanin B], the “inhibitory concentrations against influenza viruses” value in data set [4] is on record as “below 1 mg/mL”.
Regarding `COC(=O)N[C@H](C(=O)N1CCC[C@H]1c1nc(-c2ccc(-c3ccc(-c4c[nH]c([C@@H]5CCCN5C(=O)[C@@H](NC(=O)OC)C(C)C)n4)cc3)cc2)c[nH]1)C(C)C` [Daclatasvir, daclatasvir], the EC50 was 8e-06 ± 1e-06 µM in data set [2] (setting [6]) and 0.00591 ng/mL in data set [2] (setting [7]).
Take `CCC[C@H](NC(=O)[C@@H]1[C@H]2CCC[C@H]2CN1C(=O)[C@@H](NC(=O)[C@@H](NC(=O)c1cnccn1)C1CCCCC1)C(C)(C)C)C(=O)C(=O)NC1CC1` [Telaprevir, telaprevir]: the EC50 is 0.185 ± 0.035 µM in data set [2] (setting [6]) and 126 ng/mL in data set [2] (setting [7]).
For `CC(C)OC(=O)[C@H](C)N[P@](=O)(OC[C@H]1O[C@@H](n2ccc(=O)[nH]c2=O)[C@](C)(F)[C@@H]1O)Oc1ccccc1` [Sofosbuvir, sofosbuvir], in that order: 0.0263 ± 0.0055 µM and 13.9 ng/mL.

Source of the values: PMC6274077, “In Vitro Study on Anti-Hepatitis C Virus Activity of Spatholobus suberectus Dunn” (Molecules, 2016).
